Reference: EP2924037A1, “QUINAZOLINE DERIVATE AND USE THEREOF AS APOPTOSIS INHIBITOR” (Linx Pharmaceutical Co., Ltd., priority 2012, dated 2013)

Experiments:
HS>rpr Drosophila = experiment: Compound screen in the apoptotic HS>rpr Drosophila model; assay type: in vivo; settings: heat shock at 37 °C; 25 compounds screened
Protocol: HS-Gal4 (a promoter that can be expressed in whole body and activated by heat), can promote expression of any genes having repeated UAS (upstream activating sequence) at the 5' region. The HS-Gal4 and UAS-Reaper Drosophila were crossed at 18 °C to produce hybrids referred to as HS> rpr, and the female offspring underwent normal development. However, with heat shock for 2-3 hours at 37 °C, about 50-70% of the offspring died after 14-24 h (Fig. 1). 25 compounds were selected (Fig. 2) to determine their impact on the lethal rate of HS> rpr.
UAS-rpr and HS-Gal4 flies were obtained from Bloomington Stock Center in the US. The F1 progenies (HS>rpr) from the cross of these two lines were raised at 18 °C for the compound screen. Compounds were dissolved in 5% sucrose at the concentrations used in the culture media for Cmap. The compound solution (150 µL) was added to a vial containing three layers of filter papers. Twenty adult HS>rpr flies aged 1-3 days were then placed into each vial for 24 hours. The flies were heat shocked at 37 °C for 2 hrs. The survival rate was calculated 12 hrs after the heat shock.

[1] = test system: RAW264.7 macrophage cells; experiment: LPS and IFNγ induced apoptosis, Annexin V staining; assay type: cell-based; settings: Mus musculus, LPS (2 µg/ml) and IFNγ (50 U/ml), read-out: reduction of apoptosis
Protocol: Cells were stained with Annexin V to examine apoptosis (Fig. 4). […] Terazosin (4 µg/ml) can reduced 50% of apoptosis (Fig. 4).
The RAW 264.7 cells were cultured in the DMEM medium (Gibco) supplemented with 10% FBS (Gibco), streptomycin (0.1 g/L) and penicillin (0.06 g/L) (Amresco). To induce apoptosis, RAW 264.7 cells at 90% confluence were incubated in DMEM (10% FBS) containing 2 µg/mL lipopolysaccharide (LPS; Escherichia coli O111:B4, Sigma) for 24 hours.
(§1) RAW 264.7 cells were cultured in the DMEM medium (Gibco) supplemented with 5% FBS, streptomycin (0.1 mg/mL) and penicillin (0.06 mg/mL). To induce apoptosis, 2 µg/mL lipopolysaccharide (LPS; Escherichia coli O111:B4, Sigma-Aldrich) and IFN-γ (50 U/mL, Peprotech) were added, and a predetermined concentration of the testing compound was added at the same time. Cell death was assessed by Western blot with an anti-active Caspase 3 antibody (#9661, Cell Signaling). β-Actin (Boster) was used as internal control for protein loading. The ratio of Caspase 3/β-Actinwas was used to assess apoptosis.

[2] = test system: E. coli induced sepsis model; experiment: E. coli induced sepsis model in mice; assay type: in vivo, BALB/C mice; settings: 0.4 mg/kg, 1.5 hours following injection of E. coli
Protocol: Terazosin was tested in a model of septicemia caused by E. coli injected. […] To determine the potential antibacterial effect, the growth of E. coli was examined in the presence of terazosin.

E. Coli O111:B4 = experiment: Oxford Cup test of antibiotic activity; assay type: cell-based; settings: after 24 hrs; terazosin 0.2µg, 2µg, 200µg, 2mg; ampicillin 2mg
Protocol: The antibiotic activity of terazosin was measured by Oxford Cup test. Oxford Cups containing different concentrations of terazosin were placed in the petri dish wherein E. Coli O111:B4 was cultured on LB medium. The effects of terazosin and ampicillin on the growth of E. Coli were examined after 24 hrs.

CLP model of sepsis = assay type: in vivo, BALB/C mice
Protocol: (§2) Because E. coli and LPS models can only simulate Gram-negative bacteria infections, terazosin was further tested in a cecal ligation and puncture (CLP) model, which is believed to be the classic standard model of experimental septicemia (Parker and Watkins, 2001; Wichterman et al., 1980). First, 0.4 mg/kg of terazosin (same concentration as used in the LPS model) was tested. […] This may be due to severe cardiac dysfunction and hypotension induced by CLP. Thus, the blood pressure lowering function of the drug may have masked its anti-apoptotic effect. […] In addition, the combination of terazosin and antibiotics was tested. Terazosin was combined with amoxicillin and clavulanate potassium (Co-Am, amoxicillin and clavulanate potassium in a weight ratio of 4: 1, by way of a specific example elsewhere or instance mentioned in the present invention, also means a 4 : 1 ratio. Skilled in the art can understand, when a combination of amoxicillin and clavulanate potassium is referred to, the weight ratio of amoxicillin and clavulanate potassium can be from 1:1 to 10:1, especially 1:1-7:1, for example, about 1:1, about 4:1, about 7:1).
For the CLP model of sepsis, mice were anesthetized with chloral hydrate (300 mg/kg, i.p.). Then, a 1.5-2.0 cm long abdominal midline incision was made and the cecum was exposed. […]

[3] = Blood pressure of injected mice; assay type: in vivo; settings: 0.08 mg/kg
Protocol: as §2

[4] = test system: active form of caspase-3 in Raw 264.7 cells; experiment: Western blot of the active form of caspase-3 in cells treated with LPS and IFNγ; assay type: cell-based
Protocol: CLP was done one week after the injection.
For Western blot, an anti-active Caspase 3 antibody (#9664, Cell Signaling) was used. The anti-actin antibody was purchased from Wuhan Boster company, China.
as §1

[5] = Effect on serum glucose in mice; assay type: in vivo; settings: Mus musculus, ip, 18 h, read-out: reduction of the serum glucose level
Protocol: Mice were injected terazosin (0.4 mg/kg i.p.) once. The serum glucose level of the mice was measured 18 hours later. […] By the same method, exemplary compounds Co.1, Co.3, Co.7, Co.9, Co.13, Co.16, Co.19, Co.24, Co.27 and Co.32 as described in the present invention were all shown to be effective to reduce the serum glucose level by 20% to 50%.

[6] = test system: sepsis models (LPS; Cecal Ligation and Puncture); experiment: Effects against sepsis (LPS and CLP models), 7-day survival; assay type: in vivo, BALB/C mice; settings: i.p. once a day for 3 days at 0.4 mg/kg; 7-day period; P < 0.05 compared to negative controls
Protocol: After 1.5 hours, compounds were injected (i.p.) at a predetermined concentration. Mouse survival was examined every 12 hours for 7 days. Statistical significance of the difference in the survival rates was analyzed.
Another model is Cecal Ligation and Puncture (CLP) model of sepsis. Mice were anesthetized. A 1.5-2.0 cm long abdominal midline incision was made and the cecum was exposed. After ligation 5 mm from the cecal tip, the cecum was punctured once with a 22-gauge needle, and some stool was squeezed out. Then the cecum was put back into the abdomen and the abdomen was closed by running suture. After 1.5 hours, compounds were injected (i.p.) at a predetermined concentration. Mouse survival was examined every 12 hours for 7 days. Statistical significance of the difference in the survival rates was analyzed.
These compounds were individually injected (i.p.) once a day for 3 days at 0.4 mg/kg.

Protocol for LPS-induced sepsis model: Male BALB/C mice (20±3g) from Vital River (Beijing, China) were housed in the Animal Center of Peking University. […] For the LPS model of sepsis, each mouse was injected with LPS (13.5 mg/kg, i.p.) once. […] Terazosin (0.4 mg/kg or 0.04 mg/kg) or saline was then injected (i.p.) 1.5 hours after LPS infusion. Lethality was recorded every 12 hours for 7 days.
24 hrs after LPS injection, one thymus from each mouse was collected. Then, the genomic DNA of thymus was extracted with a genomic DNA purification kit (Biofuture, Beijing, China). DNA fragmentation was assessed on a DNA agarose gel.

COc1cc2nc(N3CCN(C(=O)C4CCCO4)CC3)nc(N)c2cc1OC (stereo not drawn) [Co.33, (4-(4-amino-6,7-dimethoxyquinazolin-2-yl)piperazin-1-yl)(tetrahydrofuran-2-yl)methanone]
survival rate of HS>rpr Drosophila (HS>rpr Drosophila): significantly improve the survival rate
inhibition at 4 µg/mL [1]: 50%
protection from E. coli-induced death [2]: can protect mice from E. coli-induced death
growth of E. coli (inhibition zones) (E. Coli O111:B4): cannot inhibit the growth of E. coli
survival of mice in the CLP model (CLP model of sepsis; 0.08 mg/kg, injected at 1.5 hours and 24 hours after surgery): significantly promoted the survival of mice
death of mice in the CLP model versus control (CLP model of sepsis; mouse, in vivo): died faster than the control group
blood pressure of the injected mice [3]: completely normal
active form of caspase-3 [4]: decreased
inhibition in vivo at 0.4 mg/kg [5]: 30%
survival against sepsis [6]: significantly increased survival against sepsis
effect in later phases of septicemia (survival) (LPS-induced sepsis model; injected at 12 hours after LPS treatment (0.04 mg/kg per Fig. 6)): satisfactory results
DNA ladders in genomic DNA of the thymus (LPS-induced sepsis model; mice treated with LPS and terazosin vs LPS, 24 hrs after LPS injection): significantly reduced
